Results on nine compounds are retold here after patent publication US6251944A, “Para-substituted phenylene derivatives” (G. D. Searle & Company, priority 1999, dated 2001).

The target in experiment [1] is T1, Human fibrinogen receptor (αIIbβ3) (Homo sapiens, UniProt P05106+P08514).
T1 construct: purified from outdated platelets; from tissue; host or cells: outdated platelets (human)
The experiment can be described thus: Purified IIb/IIIa receptor assay (solid phase receptor assay). The conditions noted are these: inhibition of 50% of maximum binding of biotinylated vitronectin; highest concentration tested 1.0×10^-4 M. How it is done:
The activity of the compounds of the present invention was tested in the following assays.
Human fibrinogen receptor (αIIbβ3) was purified from outdated platelets. […] Biotinylated human vitronectin was prepared by coupling NHS-biotin from Pierce Chemical Company (Rockford, Ill.) to purified vitronectin as previously described. […] Anti-biotin antibody was obtained from Calbiochem (La Jolla, Calif.). Linbro microtiter plates were obtained from Flow Labs (McLean, Va.). ADP reagent was obtained from Sigma (St. Louis, Mo.).
Solid Phase Receptor Assays
The purified human fibrinogen receptor (αIIbβ3) was diluted from stock solutions to 1.0 μg/mL in Tris-buffered saline containing 1.0 mM Ca^++, Mg^++, and Mn^++, pH 7.4 (TBS^+++). The diluted receptor was immediately transferred to Linbro microtiter plates at 100 μL/well (100 ng receptor/well). The plates were sealed and incubated overnight at 4° C. to allow the receptor to bind to the wells. All remaining steps were at room temperature. The assay plates were emptied and 200 μL of 1% RIA grade BSA in TBS^+++ (TBS^+++ /BSA) were added to block exposed plastic surfaces. Following a 2 hour incubation, the assay plates were washed with TBS^+++ using a 96 well plate washer. Logarithmic serial dilution of the test compound and controls were made starting at a stock concentration of 2 mM and using 2 nM biotinylated vitronectin in TBS^+++ /BSA as the diluent. This premixing of labeled ligand with test (or control) ligand, and subsequent transfer of 50 μL aliquots to the assay plate was carried out with a CETUS Propette robot; the final concentration of the labeled ligand was 1 nM and the highest concentration of test compound was 1.0×10^-4 M. The competition occurred for two hours after which all wells were washed with a plate washer as before. Affinity purified horseradish peroxidase labeled goat anti-biotin antibody was diluted 1:3000 in TBS^+++ /BSA and 125 μL were added to each well. After 30 minutes, the plates were washed and incubated with […]/H2 O2 substrate in 100 mM/L citrate buffer, pH 5.0. The plate was read with a microtiter plate reader at a wavelength of 450 nm and when the maximum-binding control wells reached an absorbance of about 1.0, the final A450 were recorded for analysis. The data were analyzed using a macro written for use with the EXCEL™ spreadsheet program. The mean, standard deviation, and % CV were determined for duplicate concentrations. The mean A450 values were normalized to the mean of four maximum-binding controls (no competitor added) (B-MAX). The normalized values were subjected to a four parameter curve fit algorithm, [Robard et al., Int.

The target in experiment [2] is T2, Human vitronectin receptor(αvβ3) (Homo sapiens, UniProt P05106+P06756).
T2 construct: purified from human placenta; from tissue; host or cells: human placenta
Kind of experiment: Vitronectin adhesion assay (solid phase receptor assay, αvβ3). As to conditions: inhibition of 50% of maximum binding of biotinylated vitronectin; highest concentration tested 1.0×10^-4 M; read-out: AvB3 IC50. How it is done:
The activity of the compounds of the present invention was tested in the following assays. […] Assay buffer, OPD substrate tablets, and RIA grade BSA were obtained from Sigma (St. Louis, Mo.). Anti-biotin antibody was obtained from Calbiochem (La Jolla, Calif.). Linbro microtiter plates were obtained from Flow Labs (McLean, Va.). ADP reagent was obtained from Sigma (St. Louis, Mo.). […] The purified human vitronectin receptor (αvβ3) was diluted from stock solutions to 1.0 μg/mL in Tris-buffered saline containing 1.0 mM Ca^++, Mg^++, and Mn^++, pH 7.4 (TBS^+++). The diluted receptor was immediately transferred to Linbro microtiter plates at 100 μL/well (100 ng receptor/well). The plates were sealed and incubated overnight at 4° C. to allow the receptor to bind to the wells. All remaining steps were at room temperature. The assay plates were emptied and 200 μL of 1% RIA grade BSA in TBS^+++ (TBS^+++ /BSA) were added to block exposed plastic surfaces. Following a 2 hour incubation, the assay plates were washed with TBS^+++ using a 96 well plate washer. […] The competition occurred for two hours after which all wells were washed with a plate washer as before. […] After 30 minutes, the plates were washed and incubated with OPD/H2 O2 substrate in 100 mM/L Citrate buffer, pH 5.0. […] The data were analyzed using a macro written for use with the EXCEL™ spreadsheet program. The mean, standard deviation, and % CV were determined for duplicate concentrations. The mean A450 values were normalized to the mean of four maximum-binding controls (no competitor added)(B-MAX). The normalized values were subjected to a four parameter curve fit algorithm [Rodbard et al., Int. […] Ser.

Each structure is given as a SMILES string. Structures can show the parent of a compound that is named as a salt.

T2 sequence (P06756 31-889 limits assumed): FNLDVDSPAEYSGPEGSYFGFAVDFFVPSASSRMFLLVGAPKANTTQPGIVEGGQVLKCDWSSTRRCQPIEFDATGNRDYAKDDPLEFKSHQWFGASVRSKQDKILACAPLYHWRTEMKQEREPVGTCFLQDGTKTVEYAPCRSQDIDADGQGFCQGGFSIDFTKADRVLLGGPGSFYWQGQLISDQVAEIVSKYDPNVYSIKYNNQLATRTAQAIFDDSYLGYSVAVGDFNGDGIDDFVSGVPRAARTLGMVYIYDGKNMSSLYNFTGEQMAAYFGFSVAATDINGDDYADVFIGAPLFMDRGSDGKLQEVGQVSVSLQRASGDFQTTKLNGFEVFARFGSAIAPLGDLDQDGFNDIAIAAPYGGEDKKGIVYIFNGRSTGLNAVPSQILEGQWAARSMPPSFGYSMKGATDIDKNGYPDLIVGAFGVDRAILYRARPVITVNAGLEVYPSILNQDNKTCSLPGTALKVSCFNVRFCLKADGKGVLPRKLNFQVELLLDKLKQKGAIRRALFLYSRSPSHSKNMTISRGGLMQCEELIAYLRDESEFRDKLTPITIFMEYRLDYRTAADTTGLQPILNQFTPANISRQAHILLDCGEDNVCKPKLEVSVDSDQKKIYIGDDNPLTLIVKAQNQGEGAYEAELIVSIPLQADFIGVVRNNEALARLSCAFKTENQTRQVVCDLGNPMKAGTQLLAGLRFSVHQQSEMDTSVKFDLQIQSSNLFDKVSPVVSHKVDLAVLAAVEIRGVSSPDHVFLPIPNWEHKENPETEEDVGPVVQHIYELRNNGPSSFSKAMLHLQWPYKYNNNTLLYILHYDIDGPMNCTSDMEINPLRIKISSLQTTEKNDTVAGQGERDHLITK
T2 sequence (P06756 891-1048 limits assumed): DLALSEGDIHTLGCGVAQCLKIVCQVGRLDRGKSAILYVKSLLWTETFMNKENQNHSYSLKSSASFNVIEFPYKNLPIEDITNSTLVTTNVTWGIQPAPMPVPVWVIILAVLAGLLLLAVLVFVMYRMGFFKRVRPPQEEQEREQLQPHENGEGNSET
T2 sequence (P05106 27-788): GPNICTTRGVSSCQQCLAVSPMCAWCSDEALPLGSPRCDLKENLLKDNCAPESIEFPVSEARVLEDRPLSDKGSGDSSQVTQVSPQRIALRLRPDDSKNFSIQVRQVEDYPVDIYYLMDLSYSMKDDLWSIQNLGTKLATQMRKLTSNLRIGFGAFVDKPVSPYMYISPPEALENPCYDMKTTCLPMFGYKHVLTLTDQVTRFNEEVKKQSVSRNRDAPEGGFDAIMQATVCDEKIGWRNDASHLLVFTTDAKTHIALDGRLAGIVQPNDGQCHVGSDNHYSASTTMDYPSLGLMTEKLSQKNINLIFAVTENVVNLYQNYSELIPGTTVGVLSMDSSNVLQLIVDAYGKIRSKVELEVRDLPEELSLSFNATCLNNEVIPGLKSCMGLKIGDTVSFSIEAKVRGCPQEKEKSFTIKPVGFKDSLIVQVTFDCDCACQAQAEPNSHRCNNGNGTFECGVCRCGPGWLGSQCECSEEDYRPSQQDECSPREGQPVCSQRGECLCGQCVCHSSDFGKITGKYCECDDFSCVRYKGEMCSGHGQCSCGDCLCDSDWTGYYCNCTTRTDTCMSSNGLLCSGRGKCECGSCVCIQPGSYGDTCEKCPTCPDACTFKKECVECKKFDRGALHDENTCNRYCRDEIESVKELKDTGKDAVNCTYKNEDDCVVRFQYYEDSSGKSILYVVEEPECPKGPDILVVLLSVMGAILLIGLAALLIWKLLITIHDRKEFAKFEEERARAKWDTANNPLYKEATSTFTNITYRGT
T1 sequence (P08514 32-887 limits assumed): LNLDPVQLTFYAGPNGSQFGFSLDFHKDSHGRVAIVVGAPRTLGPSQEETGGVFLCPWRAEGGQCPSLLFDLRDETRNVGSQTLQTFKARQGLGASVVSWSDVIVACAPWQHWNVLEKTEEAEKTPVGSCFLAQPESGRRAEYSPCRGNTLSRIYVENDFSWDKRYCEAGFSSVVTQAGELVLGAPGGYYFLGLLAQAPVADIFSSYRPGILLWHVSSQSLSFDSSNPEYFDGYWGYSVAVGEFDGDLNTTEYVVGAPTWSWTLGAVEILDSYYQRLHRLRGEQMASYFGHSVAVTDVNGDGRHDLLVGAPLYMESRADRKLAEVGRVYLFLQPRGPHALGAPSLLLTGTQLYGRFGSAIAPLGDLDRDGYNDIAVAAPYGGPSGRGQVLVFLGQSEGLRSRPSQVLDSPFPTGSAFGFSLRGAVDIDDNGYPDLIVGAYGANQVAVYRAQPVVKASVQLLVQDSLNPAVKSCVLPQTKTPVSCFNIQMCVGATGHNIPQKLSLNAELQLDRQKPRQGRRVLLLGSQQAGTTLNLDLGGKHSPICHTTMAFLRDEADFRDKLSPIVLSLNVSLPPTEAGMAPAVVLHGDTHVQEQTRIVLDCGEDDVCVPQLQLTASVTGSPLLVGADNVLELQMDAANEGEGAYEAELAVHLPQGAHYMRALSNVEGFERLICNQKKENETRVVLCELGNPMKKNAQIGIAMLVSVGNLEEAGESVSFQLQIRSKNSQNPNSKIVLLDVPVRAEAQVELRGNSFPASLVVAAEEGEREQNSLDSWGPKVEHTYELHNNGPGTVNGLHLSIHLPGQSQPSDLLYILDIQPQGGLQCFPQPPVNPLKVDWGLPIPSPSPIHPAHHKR
T1 sequence (P08514 891-1039 limits assumed): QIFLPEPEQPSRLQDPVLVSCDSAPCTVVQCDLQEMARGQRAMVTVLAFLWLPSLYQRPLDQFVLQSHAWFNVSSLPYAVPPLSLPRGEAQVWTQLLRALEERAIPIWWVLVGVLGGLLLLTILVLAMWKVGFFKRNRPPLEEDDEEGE
T1 sequence (P05106 27-788): as the sequence (P05106 27-788) above

With `N=C(N)Nc1cccc(C(=O)Nc2ccc(CCC(=O)O)c(CCC(=O)O)c2)c1` [Example 100, 4-[[[3-[(aminoiminomethyl)amino]phenyl]carbonyl]amino]benzene-1,2-dipropanoic Acid, trifluoroacetate Salt], the values for the IC50 in experiment [1] and in experiment [2] were 44 nM and 6 nM, respectively.
With `CC(C)(C)CC(=O)NC(Cc1ccc(NC(=O)c2cccc(NC(=N)N)c2)cc1)C(=O)O` (stereo not drawn) [Example 109, 4-[[[3-[(aminoiminomethyl)amino]phenyl]carbonyl]amino]-N-(3,3-dimethyl-1-oxobutyl)phenylalanine, trifluoroacetate Salt], the values for the IC50 in experiment [1] and in experiment [2] were 111 nM and 5 nM, respectively.
The matching figures for `CC(C)(C)CC(=O)NC(Cc1ccc(NC(=O)c2cc(NC(=N)N)cc(C(F)(F)F)c2)cc1)C(=O)O` (stereo not drawn) [Example 110, 4-[[[3-[(aminoiminomethyl)amino]-5-(trifluoromethyl)phenyl]carbonyl]amino]-N-(3,3-dimethyl-1-oxobutyl)phenylalanine, trifluoroacetate Salt]: 326 nM and 4 nM.
For `COc1cc(NC(=O)c2cccc(NC(=N)N)c2)ccc1CC(NC(=O)OC(C)C)C(=O)O` (stereo not drawn) [Example 113, 4-[[[3-[(aminoiminomethyl)amino]phenyl]carbonyl]amino]-2-methoxy-N-[(1-methylethoxy)carbonyl]phenylalanine, trifluoroacetate salt, monohydrate], in that order: 253 nM and 1 nM.
The matching figures for `COc1cc(NC(=O)c2cccc(NC(=N)N)c2)ccc1OCC(=O)O` [Example 118, [4-[[[3-[(aminoiminomethyl)amino]phenyl]carbonyl]amino]-2-methoxyphenoxy]acetic Acid, trifluoroacetate Salt]: 54 nM and 3 nM.
Consider `N=C(N)Nc1cccc(C(=O)Nc2ccc(CC(NS(=O)(=O)/C=C/c3ccccc3)C(=O)O)cc2)c1` (stereo not drawn) [Example 123, 4-[[[3-[(aminoiminomethyl)amino]phenyl]carbonyl]amino]-N-[(2-phenylethenyl)sulfonyl]phenylalanine, trifluoroacetate Salt], for which the values for the IC50 in experiment [1] and in experiment [2] were 1.5 nM and 0.5 nM, respectively.
For `CC(C)(C)NC(=O)NC(Cc1ccc(NC(=O)c2cccc(NC(=N)N)c2)cc1)C(=O)O` (stereo not drawn) [Example 124, 4-[[[3-[(aminoiminomethyl)amino]phenyl]carbonyl)amino]-N-[[(1,1-dimethylethyl)amino]carbonyl]phenylalanine, trifluoroacetate Salt], in that order: 285 nM and 3 nM.
Turning to `CC(C)OC(=O)NC(Cc1ccc(NC(=O)c2cccc(C(=O)NC(=N)N)c2)cc1)C(=O)O` (stereo not drawn) [Example 128, 4-[[[3-[[(aminoiminomethyl)amino]carbonyl]phenyl]carbonyl]amino]-N-[(1-methylethoxy)carbonyl]phenylalanine, trifluoroacetate Salt], the concentration for half-maximal inhibition (IC50) (in general, the concentration that gives 50% inhibition) was found to be 20 nM in experiment [1] and 216 nM in experiment [2].
For `CCC(Cc1ccc(NC(=O)c2cccc(NC(=N)N)c2)cc1)C(=O)O` (stereo not drawn) [Example 129, 4-[[[3-[(aminoiminomethyl)amino]phenyl]carbonyl]amino]-α-ethylbenzenepropanoic Acid, trifluoroacetate Salt], the IC50 in experiment [1] was 5260 nM; in experiment [2] it was 265 nM.
